Reference: ChEMBL document CHEMBL2412968, “Tetrazole-based deoxyamodiaquines: synthesis, ADME/PK profiling and pharmacological evaluation as potential antimalarial agents” (Bioorg Med Chem, 2013)

What follows are molecules tested on Plasmodium falciparum (assay: Antiplasmodial activity chloroquine-resistant Plasmodium falciparum W2 using YOYO-1 staining after 48 hrs by FACS analysis). Details: W2, 48 h.
Format: functional, organism-based

Going from `CC(C)(C)n1nnnc1C(c1cccc(Nc2ccnc3cc(Cl)ccc23)c1)N1CCOCC1` (configuration not stated) to `Clc1ccc2c(Nc3cccc(C(c4nnn[nH]4)N4CCOCC4)c3)ccnc2c1` (configuration not stated), the IC50 rises from 0.195 µM to 1.39 µM (7.1-fold).

First: CN(C)C(c1ccccc1Nc1ccnc2cc(Cl)ccc12)c1nnnn1C(C)(C)C (configuration not stated)
Second: CCN(CC)Cc1cc(Nc2ccnc3cc(Cl)ccc23)ccc1O
The IC50 of the first is 8.5-fold higher: 3.39 µM for the first, 0.401 µM for the second. The second is the more potent here.

These molecules were tested on Plasmodium falciparum (assay: Antiplasmodial activity chloroquine-resistant Plasmodium falciparum K1 infected in human A+ erythrocytes assessed as reduction of [3H]hypoxanthine incorporation after 24 hrs by scintillation counting). Details: not given.
Format: functional, organism-based

Compared with `CC(C)(C)n1nnnc1C(c1cccc(Nc2ccnc3cc(Cl)ccc23)c1)N1CCOCC1` (configuration not stated), `Clc1ccc2c(Nc3cccc(C(c4nnn[nH]4)N4CCOCC4)c3)ccnc2c1` (configuration not stated) is 1.5-fold higher in IC50: 1.29 µM for the first, 1.97 µM for the second. The first is the more potent here.

First: CN(C)C(c1ccccc1Nc1ccnc2cc(Cl)ccc12)c1nnnn1C(C)(C)C (configuration not stated)
Second: CCN(CC)Cc1cc(Nc2ccnc3cc(Cl)ccc23)ccc1O
The IC50 of the first is 130-fold higher: 3.5 µM for the first, 0.027 µM for the second. The second is the more potent here.

Each molecule was assayed on Plasmodium falciparum (assay: Antiplasmodial activity chloroquine-sensitive Plasmodium falciparum 3D7 infected in human A+ erythrocytes assessed as reduction of [3H]hypoxanthine incorporation after 24 hrs by scintillation counting). Details: not given.
Format: functional, organism-based

First: CC(C)(C)n1nnnc1C(c1cccc(Nc2ccnc3cc(Cl)ccc23)c1)N1CCOCC1 (configuration not stated)
Second: Clc1ccc2c(Nc3cccc(C(c4nnn[nH]4)N4CCOCC4)c3)ccnc2c1 (configuration not stated)
The IC50 of the first is 21-fold lower: 0.099 µM for the first, 2.07 µM for the second. The first is the more potent here.

First: CN(C)C(c1ccccc1Nc1ccnc2cc(Cl)ccc12)c1nnnn1C(C)(C)C (configuration not stated)
Second: CCN(CC)Cc1cc(Nc2ccnc3cc(Cl)ccc23)ccc1O
The IC50 of the first is 3500-fold higher: 3.5 µM for the first, 0.001 µM for the second. The second is the more potent here.
